How the values were obtained:
Test in all cases: Kinase profiling
Type in all cases: biochemical
[1] = target: T1, TGFBR1 (Homo sapiens, UniProt P36897)
T1 construct: purchased ProQinase (Freiburg, Germany)
T1 sequence (P36897 34-503): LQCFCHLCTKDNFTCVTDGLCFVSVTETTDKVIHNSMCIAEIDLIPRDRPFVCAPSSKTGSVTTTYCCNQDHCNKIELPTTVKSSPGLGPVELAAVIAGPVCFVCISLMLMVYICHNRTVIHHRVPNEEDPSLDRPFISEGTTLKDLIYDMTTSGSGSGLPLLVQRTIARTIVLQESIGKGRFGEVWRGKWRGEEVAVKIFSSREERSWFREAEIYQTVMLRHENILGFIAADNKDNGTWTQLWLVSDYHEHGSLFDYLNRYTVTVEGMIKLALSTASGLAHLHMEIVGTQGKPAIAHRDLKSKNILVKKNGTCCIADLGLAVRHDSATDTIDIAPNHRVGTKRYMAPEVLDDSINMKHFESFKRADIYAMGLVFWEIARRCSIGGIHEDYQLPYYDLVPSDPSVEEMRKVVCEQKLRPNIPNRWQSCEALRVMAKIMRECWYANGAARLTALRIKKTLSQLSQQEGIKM
Method: (§1) The analysis was performed by ProQinase (Freiburg, Germany).

[2] = target: T2, CDK4/CycD3 (Homo sapiens, UniProt P11802)
T2 construct: purchased ProQinase (Freiburg, Germany)
T2 sequence (P11802 whole entry): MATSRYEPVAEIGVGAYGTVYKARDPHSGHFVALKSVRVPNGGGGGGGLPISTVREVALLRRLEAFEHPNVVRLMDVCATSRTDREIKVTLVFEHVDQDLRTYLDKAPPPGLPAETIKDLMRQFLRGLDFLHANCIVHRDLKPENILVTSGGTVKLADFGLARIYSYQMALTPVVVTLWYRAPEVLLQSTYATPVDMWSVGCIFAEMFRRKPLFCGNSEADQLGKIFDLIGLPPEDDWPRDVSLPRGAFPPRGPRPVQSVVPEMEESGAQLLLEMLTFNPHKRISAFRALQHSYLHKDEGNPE
T2 sequence (P30281 whole entry partner): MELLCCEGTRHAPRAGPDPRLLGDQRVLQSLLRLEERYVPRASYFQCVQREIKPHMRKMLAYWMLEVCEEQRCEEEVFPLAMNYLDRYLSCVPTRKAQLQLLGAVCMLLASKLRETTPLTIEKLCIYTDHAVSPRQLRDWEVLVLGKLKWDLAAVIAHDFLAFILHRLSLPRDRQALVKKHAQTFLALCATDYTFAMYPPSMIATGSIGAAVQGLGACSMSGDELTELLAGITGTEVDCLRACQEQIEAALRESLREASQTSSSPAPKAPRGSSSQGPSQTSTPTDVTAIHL
Method: as §1

[3] = target: T3, AKT1 (Homo sapiens, UniProt P31749)
T3 construct: purchased ProQinase (Freiburg, Germany)
T3 sequence (P31749 whole entry): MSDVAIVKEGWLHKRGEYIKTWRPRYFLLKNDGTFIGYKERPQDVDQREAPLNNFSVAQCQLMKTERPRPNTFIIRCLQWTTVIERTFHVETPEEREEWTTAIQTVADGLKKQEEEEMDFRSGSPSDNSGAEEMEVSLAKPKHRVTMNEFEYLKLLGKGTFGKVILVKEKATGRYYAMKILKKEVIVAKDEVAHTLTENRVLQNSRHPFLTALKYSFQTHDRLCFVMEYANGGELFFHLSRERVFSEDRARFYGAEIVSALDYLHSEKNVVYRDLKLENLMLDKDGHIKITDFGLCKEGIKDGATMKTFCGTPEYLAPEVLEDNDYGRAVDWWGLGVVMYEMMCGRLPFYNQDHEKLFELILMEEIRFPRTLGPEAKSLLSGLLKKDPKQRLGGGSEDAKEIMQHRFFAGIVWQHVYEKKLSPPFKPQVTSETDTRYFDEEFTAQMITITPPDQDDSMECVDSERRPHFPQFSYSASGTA
Method: as §1

[4] = target: T4, SRC (Homo sapiens, UniProt P12931)
T4 construct: purchased ProQinase (Freiburg, Germany)
T4 sequence (P12931 whole entry): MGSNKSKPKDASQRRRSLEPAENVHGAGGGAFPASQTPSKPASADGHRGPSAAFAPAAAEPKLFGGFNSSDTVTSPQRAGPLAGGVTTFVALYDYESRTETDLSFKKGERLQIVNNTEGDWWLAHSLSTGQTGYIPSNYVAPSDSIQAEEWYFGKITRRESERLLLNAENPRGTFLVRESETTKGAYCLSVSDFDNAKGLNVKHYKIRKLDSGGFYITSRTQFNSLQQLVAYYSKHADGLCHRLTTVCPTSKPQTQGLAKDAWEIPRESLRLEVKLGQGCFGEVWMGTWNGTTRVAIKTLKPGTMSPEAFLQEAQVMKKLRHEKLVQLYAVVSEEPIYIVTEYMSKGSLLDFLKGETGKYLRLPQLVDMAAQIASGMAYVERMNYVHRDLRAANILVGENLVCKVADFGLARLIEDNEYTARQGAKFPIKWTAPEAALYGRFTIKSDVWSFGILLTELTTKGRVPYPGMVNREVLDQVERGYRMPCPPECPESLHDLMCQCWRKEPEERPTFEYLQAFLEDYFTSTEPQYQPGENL
Method: as §1

[5] = target: T5, PRKG2 (Homo sapiens, UniProt Q13237)
T5 construct: purchased ProQinase (Freiburg, Germany)
T5 sequence (Q13237 1-762): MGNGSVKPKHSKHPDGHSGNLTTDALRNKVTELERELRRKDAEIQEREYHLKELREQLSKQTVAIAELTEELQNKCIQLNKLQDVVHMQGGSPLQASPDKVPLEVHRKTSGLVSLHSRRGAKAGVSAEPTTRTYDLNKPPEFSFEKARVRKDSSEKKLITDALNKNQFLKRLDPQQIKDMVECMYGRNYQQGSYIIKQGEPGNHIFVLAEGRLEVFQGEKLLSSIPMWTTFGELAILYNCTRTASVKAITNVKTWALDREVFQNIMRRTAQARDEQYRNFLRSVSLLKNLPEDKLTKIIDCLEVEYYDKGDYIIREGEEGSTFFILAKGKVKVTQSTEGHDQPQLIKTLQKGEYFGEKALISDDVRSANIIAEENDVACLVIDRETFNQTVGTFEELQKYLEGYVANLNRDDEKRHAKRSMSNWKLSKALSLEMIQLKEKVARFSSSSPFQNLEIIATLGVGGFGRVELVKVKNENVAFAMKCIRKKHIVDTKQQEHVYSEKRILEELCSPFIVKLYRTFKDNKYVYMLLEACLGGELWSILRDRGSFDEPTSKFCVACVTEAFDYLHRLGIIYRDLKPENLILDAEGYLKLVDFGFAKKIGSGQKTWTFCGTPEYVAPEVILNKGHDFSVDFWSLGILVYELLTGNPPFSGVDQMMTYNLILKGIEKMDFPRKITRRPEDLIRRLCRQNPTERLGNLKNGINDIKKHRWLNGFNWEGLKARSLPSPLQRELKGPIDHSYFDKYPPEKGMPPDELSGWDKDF
Method: as §1

[6] = target: T6, COT (Homo sapiens, UniProt P41279)
T6 construct: purchased ProQinase (Freiburg, Germany)
T6 sequence (P41279 whole entry): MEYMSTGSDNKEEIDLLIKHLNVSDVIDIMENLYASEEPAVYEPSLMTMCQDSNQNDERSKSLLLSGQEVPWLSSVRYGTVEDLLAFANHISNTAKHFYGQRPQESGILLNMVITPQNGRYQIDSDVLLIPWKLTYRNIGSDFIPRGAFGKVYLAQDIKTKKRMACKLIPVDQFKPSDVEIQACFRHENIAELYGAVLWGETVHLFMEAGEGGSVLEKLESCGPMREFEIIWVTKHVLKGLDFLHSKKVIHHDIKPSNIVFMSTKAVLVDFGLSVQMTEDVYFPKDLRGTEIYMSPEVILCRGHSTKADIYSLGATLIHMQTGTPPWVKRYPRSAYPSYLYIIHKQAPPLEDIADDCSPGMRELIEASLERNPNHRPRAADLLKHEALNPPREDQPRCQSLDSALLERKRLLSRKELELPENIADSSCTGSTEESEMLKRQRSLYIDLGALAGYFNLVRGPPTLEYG
Method: as §1

[7] = target: T7, NLK (Homo sapiens, UniProt Q9UBE8)
T7 construct: purchased ProQinase (Freiburg, Germany)
T7 sequence (Q9UBE8 1-527): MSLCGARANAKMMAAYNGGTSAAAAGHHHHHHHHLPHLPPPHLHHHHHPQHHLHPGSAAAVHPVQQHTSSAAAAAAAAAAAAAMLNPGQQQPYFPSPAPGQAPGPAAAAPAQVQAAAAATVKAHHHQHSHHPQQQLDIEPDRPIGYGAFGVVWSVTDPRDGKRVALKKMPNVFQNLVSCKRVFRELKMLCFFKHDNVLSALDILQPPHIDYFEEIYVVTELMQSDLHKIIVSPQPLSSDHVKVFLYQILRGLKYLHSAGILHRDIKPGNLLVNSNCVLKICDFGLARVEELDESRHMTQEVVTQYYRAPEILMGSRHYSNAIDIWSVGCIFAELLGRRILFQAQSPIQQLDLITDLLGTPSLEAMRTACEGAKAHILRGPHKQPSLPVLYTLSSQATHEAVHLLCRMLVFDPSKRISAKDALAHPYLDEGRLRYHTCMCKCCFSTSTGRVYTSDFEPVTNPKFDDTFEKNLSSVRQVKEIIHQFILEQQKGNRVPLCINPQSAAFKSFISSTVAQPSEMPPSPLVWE
Method: as §1

[8] = target: T8, CDK4/CycD1 (Homo sapiens, UniProt P11802)
T8 construct: purchased ProQinase (Freiburg, Germany)
T8 sequence (P11802 whole entry): as the sequence (P11802 whole entry) above
T8 sequence (P24385 whole entry partner): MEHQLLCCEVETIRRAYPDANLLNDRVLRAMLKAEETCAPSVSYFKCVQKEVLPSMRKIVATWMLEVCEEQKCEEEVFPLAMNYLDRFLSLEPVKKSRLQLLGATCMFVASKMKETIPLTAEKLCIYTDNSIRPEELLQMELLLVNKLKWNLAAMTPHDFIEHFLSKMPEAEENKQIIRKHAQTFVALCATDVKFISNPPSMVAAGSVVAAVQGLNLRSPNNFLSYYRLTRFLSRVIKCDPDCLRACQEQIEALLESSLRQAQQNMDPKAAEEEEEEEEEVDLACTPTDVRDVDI
Method: as §1

[9] = target: T9, TNK1 (Homo sapiens, UniProt Q13470)
T9 construct: purchased ProQinase (Freiburg, Germany)
T9 sequence (Q13470 1-666): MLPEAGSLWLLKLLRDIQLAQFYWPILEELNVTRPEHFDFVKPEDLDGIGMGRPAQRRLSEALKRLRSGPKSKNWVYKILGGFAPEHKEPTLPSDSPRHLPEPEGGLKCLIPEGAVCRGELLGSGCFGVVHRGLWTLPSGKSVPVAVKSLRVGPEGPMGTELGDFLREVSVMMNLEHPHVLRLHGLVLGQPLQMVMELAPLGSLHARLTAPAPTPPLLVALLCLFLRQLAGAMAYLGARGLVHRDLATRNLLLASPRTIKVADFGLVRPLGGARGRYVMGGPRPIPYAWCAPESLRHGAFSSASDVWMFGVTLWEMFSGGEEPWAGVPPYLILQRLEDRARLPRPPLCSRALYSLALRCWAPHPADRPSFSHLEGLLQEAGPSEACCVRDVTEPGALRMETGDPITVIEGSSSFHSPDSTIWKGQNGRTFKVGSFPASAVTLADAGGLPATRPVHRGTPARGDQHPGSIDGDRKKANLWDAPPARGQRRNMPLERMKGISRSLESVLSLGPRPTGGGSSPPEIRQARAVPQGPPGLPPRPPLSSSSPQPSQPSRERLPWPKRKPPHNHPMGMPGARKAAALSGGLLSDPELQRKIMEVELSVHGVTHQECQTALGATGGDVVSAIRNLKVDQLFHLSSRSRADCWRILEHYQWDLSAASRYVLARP
Method: as §1

| Structure (SMILES) | Residual activity ([1]; 1.0E-05 M) | Residual activity ([1]; 1.0E-06 M) | Residual activity ([2]; 1.0E-05 M) | Residual activity ([2]; 1.0E-06 M) | Residual activity ([3]; 1.0E-05 M) | Residual activity ([3]; 1.0E-06 M) | Residual activity ([4]; 1.0E-05 M) | Residual activity ([4]; 1.0E-06 M) | Residual activity ([5]; 1.0E-05 M) | Residual activity ([5]; 1.0E-06 M) | Residual activity ([6]; 1.0E-05 M) | Residual activity ([6]; 1.0E-06 M) | Residual activity ([7]; 1.0E-05 M) | Residual activity ([7]; 1.0E-06 M) | Residual activity ([8]; 1.0E-05 M) | Residual activity ([8]; 1.0E-06 M) | Residual activity ([9]; 1.0E-05 M) | Residual activity ([9]; 1.0E-06 M) |
| --- | --- | --- | --- | --- | --- | --- | --- | --- | --- | --- | --- | --- | --- | --- | --- | --- | --- | --- |
| O=C(Nc1ccc(F)c(Nc2ccc3c(c2)CCCCC3=O)c1)c1cccc(F)c1 [Compound 109] | 91 % of control | 88 % of control | 89 % of control | 94 % of control | 97 % of control | 101 % of control | 100 % of control | 107 % of control | 84 % of control | 88 % of control | 97 % of control | 95 % of control | 91 % of control | 97 % of control | 108 % of control | 93 % of control | 85 % of control | 89 % of control |
| O=C(Cc1ccccc1)Nc1ccc(F)c(Nc2ccc3c(c2)CCCCC3=O)c1 [Compound 100] | 88 % of control | 95 % of control | 89 % of control | 93 % of control | 88 % of control | 99 % of control | 105 % of control | 117 % of control | 83 % of control | 94 % of control | 106 % of control | 93 % of control | 96 % of control | 96 % of control | 94 % of control | 104 % of control | 72 % of control | 101 % of control |
